For data set [1], the system named is clinical S. aureus strains. Kind of data set: MIC, microdilution, 12 clinical S. aureus strains. Format: cell-based, Staphylococcus aureus. The settings on record: panel of 12 clinical isolates (naso-pharynx, ulcers/furuncles, bones), highest tested concentration 100 µM. The source says:
A panel of reference bacteria, including Escherichia coli NCTC 8196, Staphylococcus aureus ATCC 6538, Klebsiella pneumoniae ATCC 13883, and Pseudomonas aeruginosa NCTC 6749, was used to assess the antibacterial activity of the nine tested aziridine phosphines (1–4) and aziridine phosphine oxides (5–9). The two-fold microdilution method, following EUCAST guidelines, was used to determine a minimal inhibitory concentration (MIC) of each compound, as presented in Table S1.
Antibacterial activity: The in vitro antibacterial activity of nine tested aziridine phosphines (1–4) and aziridine phosphine oxides (5–9) was evaluated against reference bacterial strains (E. coli NCTC 8196, S. aureus ATCC 6538, K. pneumoniae ATCC 13883, P. aeruginosa NCTC 6749) and 12 S. aureus clinical isolates, including two methicillin-resistant isolates (MRSA, D15 and D17) obtained from infected patients hospitalized at the Oncological Hospital in Lodz (Poland). All strains were kept frozen at −80 °C in Tryptic Soy Broth with 15% glycerol. The minimal inhibitory concentration (MIC) is defined as the lowest concentration of the compound that prevents visible growth of bacteria using the microdilution method followed the EUCAST guidelines. Each compound was added to 96-well microplates in two-fold dilutions at concentrations from 3.125 to 100 μM in Mueller–Hinton broth. […] Bacterial culture was added into wells at a density of 5 × 10^5 CFU mL^−1, and plates were incubated at 37 °C for 18 h. As a positive control, an untreated bacterial culture was used, and a clear culture medium served as a negative control. The optical density at OD600 was measured using the SpectraMax i3 Multi-Mode Platform (Molecular Devices, San Jose, CA, USA). Ciprofloxacin hydrochloride (CIP, Sigma-Aldrich, Darmstadt, Germany) was used as a reference antimicrobial drug.

The subject of data set [2] is L929 cells. The data set is described as follows: cells. Format: cell-based, murine. The settings on record: Mus musculus, L929, 24 h, read-out: IC50 (µM) L929. How it is done:
Considering our previous research and the literature reports on the antitumor activity of aziridine derivatives, aziridine phosphines (1–4) and aziridine phosphine oxides (5–9) were tested to investigate their potential anticancer activity. The in vitro effects on cell viability were assessed using the 3-(4,5-dimethylthiazol-2-yl)-2,5-diphenyltetrazolium bromide (MTT) assay on non-tumorigenic murine fibroblasts (L929) as well as two cancer cell lines: human cervical epithelioid carcinoma (HeLa) cells and endometrial adenocarcinoma (Ishikawa) cells.
Cell viability inhibition: The in vitro effects on cell viability were determined using the 3-(4,5-dimethylthiazol-2-yl)-2,5-diphenyltetrazolium bromide (MTT) assay on non-tumorigenic murine fibroblasts L929 (ATTC®—CCL-1) as well as two cancer cell lines: human cervical epithelioid carcinoma HeLa cells (ATTC®—CCL-2™) and endometrial adenocarcinoma Ishikawa cells (ECACC 99040201). Cells were cultured on 96-well microplates at a density of 1 × 10^4 cells/well following the international in Dulbecco’s Modified Eagle’s Medium (DMEM, Biowest) supplemented with 10% fetal bovine serum (FBS, Biowest, Nuaillé, France), 100 U/mL of penicillin, and 100 μg/mL of streptomycin (Biowest, Nuaillé, France). After overnight incubation at 37 °C and 5% CO2, the growth medium was removed and 100 μL of fresh media with two-fold dilutions of the tested compounds at concentrations of 3.125–100 μM were added. […] Untreated cells in medium were used as a positive control, while a clear culture medium served as a negative control.

Data set [3] concerns HeLa cells. Kind of data set: LDH release assay. To be noted: 24 h, highest concentration of 50 µM. Type of data set: cell-based, human. How it is done:
In order to distinguish whether the cell viability inhibition was attributed to growth inhibition or cytotoxicity manifested by cell membrane disruption, the lactate dehydrogenase (LDH) release assay was conducted. LDH is a cytoplasmic enzyme rapidly released from cells upon membrane damage, a key feature of apoptosis, necrosis, and other forms of cell death. The released enzyme can be detected due to its ability to convert lactate into pyruvate and NADH, which is then specifically determined by a colorimetric assay.
Figure 3 The effects of 5 (blue) and 7 (green) on LDH release from HeLa cells. The cells were treated with compounds at a concentration range of 3.125–50 μM for 24 h at 37 °C and 5% CO2. Data are presented as the mean LDH release (%) ± SD of two experiments compared to untreated control (red). Statistical significance measured by two-way analysis of variance (ANOVA) is indicated by asterisks: (*) p < 0.05.
LDH release assay: The activity of 5 and 7 on cell membrane destabilization was determined with the CytoTox 96®Non-Radioactive Cytotoxicity Assay (Promega, Madison, WI, USA). […] After incubation, Stop Solution (50 μL) was added to each well, and the absorbance was measured at 490 nm using the SpectraMax i3 Multi-Mode Platform (Molecular Devices, San Jose, CA, USA). […]
Background: LDH in the medium is a marker of cell lysis.

Molecules are shown by their SMILES. Converted amounts (≈) assume the structure as drawn.

Broadly, the MIC is the lowest concentration that inhibits growth of the organism. As a reminder, the IC50 is the concentration at which inhibition is half-maximal. Consider `CC(C)C[C@H]1CN1c1ccccc1P(=O)(c1ccccc1)c1ccccc1` [Compound 7], for which the MIC in data set [1] (Staphylococcus aureus) and in data set [1] was 100 µM (≈ 37.5 µg/mL) throughout. Also, the IC50 in data set [2] was 17.5 ± 2.1 µM. Further, the “LDH release compared to untreated control” value in data set [3] is on record as “significant LDH release”.

Consider `CC(C)[C@@H]1CN1c1ccccc1P(=O)(c1ccccc1)c1ccccc1` [Compound 5], for which the MIC in data set [1] (Staphylococcus aureus) and in data set [1] was 100 µM (≈ 36.1 µg/mL) throughout. Also, the IC50 in data set [2] came out at 10.6 ± 3.2 µM. Besides, the “LDH release compared to untreated control” value in data set [3] was “significant LDH release”.

The values above are taken from paper PMC11012799 (Molecules, 2024).
